From US9914730B2, “Azaquinazoline inhibitors of Atypical protein Kinase C” (Ignyta, Inc., priority 2012, dated 2018)

Biological target: T1, full-length human PKCι (Homo sapiens, UniProt P41743)
T1 construct: Recombinant, full-length human PKCι expressed in Sf21 insect cells is also commercially available; purchased; host or cells: Sf21 insect cells
T1 sequence (P41743 1-596): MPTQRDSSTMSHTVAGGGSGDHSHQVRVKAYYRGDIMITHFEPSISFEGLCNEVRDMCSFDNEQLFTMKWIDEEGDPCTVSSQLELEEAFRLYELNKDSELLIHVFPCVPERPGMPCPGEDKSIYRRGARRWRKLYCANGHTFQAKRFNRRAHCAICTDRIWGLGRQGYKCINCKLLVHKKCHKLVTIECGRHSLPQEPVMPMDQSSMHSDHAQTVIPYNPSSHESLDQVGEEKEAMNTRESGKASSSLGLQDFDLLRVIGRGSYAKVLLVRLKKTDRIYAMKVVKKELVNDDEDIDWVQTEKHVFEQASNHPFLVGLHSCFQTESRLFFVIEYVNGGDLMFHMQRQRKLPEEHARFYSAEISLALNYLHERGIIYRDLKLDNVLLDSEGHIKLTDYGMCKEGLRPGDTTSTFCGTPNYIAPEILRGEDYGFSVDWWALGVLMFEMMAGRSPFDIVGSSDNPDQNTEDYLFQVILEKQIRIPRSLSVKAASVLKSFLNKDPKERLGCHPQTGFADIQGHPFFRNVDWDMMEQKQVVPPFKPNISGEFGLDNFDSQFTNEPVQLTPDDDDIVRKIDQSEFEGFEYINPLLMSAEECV
Test: PKCι IC50 IMAP assay, full-length PKCι at 150 μM ATP
Assay type: biochemical
Conditions: read-out: IC50 in IMAP assay against full length PKCi at 150 μM ATP
How it was run: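 Phosphorylation of a 5FAM-tagged PKCε pseudopeptide-derived substrate (100 nM) by full-length recombinant human PKCι was monitored by IMAP fluorescence polarisation. ATP was held at 150 μM, five times its apparent KM, with 60 min room-temperature incubation.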

**Q.** With Cc1ccc(C#N)cc1Nc1cc(-c2nc(N3CCNCC3)c3c(C4CC4)cncc3n2)ccn1 [Example 524, 3-[4-(5-Cyclopropyl-4-piperazin-1-yl-pyrido[3,4-d]pyrimidin-2-yl)-pyridin-2-ylamino]-4-methyl-benzonitrile] as the compound, how does the IC50 read?
**A.** < 100 nM

**Q.** Cn1ccc(Nc2cc(-c3nc(N4CCN[C@@H](C(F)(F)F)C4)c4c(C5CC5)cncc4n3)ccn2)n1 [Example 2053, {4-[5-Cyclopropyl-4-((R)-3-trifluoromethyl-piperazin-1-yl)-pyrido[3,4-d]pyrimidin-2-yl]-pyridin-2-yl}-(1-methyl-1H-pyrazol-3-yl)-amine] was tested. Which IC50 did it give?
**A.** < 100 nM

**Q.** Which IC50 does the source give for COc1cncc2nc(-c3ccnc(NC(=O)CN4CCCCC4)c3)nc(N3CCNCC3)c12 [Example 210, N-[4-(5-Methoxy-4-piperazin-1-yl-pyrido[3,4-d]pyrimidin-2-yl)-pyridin-2-yl]-2-piperidin-1-yl-acetamide] here?
**A.** 100 to 1000 nM

**Q.** With Fc1cccc(F)c1Nc1cc(-c2nc(N3CCNC4CC43)c3c(C4CC4)cncc3n2)ccn1 (stereo not shown) [Example 538, {4-[5-Cyclopropyl-4-(2,5-diaza-bicyclo-[4.1.0]hept-2-yl)-pyrido[3,4-d]pyrimidin-2-yl]-pyridin-2-yl}-(2,6-difluoro-phenyl)-amine] as the compound, how does the IC50 read?
**A.** < 100 nM

**Q.** How did the IC50 turn out when Cc1ccncc1Nc1cc(-c2nc(N3CCNCC3)c3c(C4CC4)cncc3n2)ccn1 [Example 478, [4-(5-Cyclopropyl-4-piperazin-1-yl-pyrido[3,4-d]pyrimidin-2-yl)-pyridin-2-yl]-(4-methyl-pyridin-3-yl)-amine] was run?
**A.** < 100 nM

**Q.** Which IC50 does the source give for FC(F)(F)COc1ccc(Nc2cc(-c3nc(N4CCNCC4)c4c(C5CC5)cncc4n3)ccn2)cc1 [Example 2150, [4-(5-Cyclopropyl-4-piperazin-1-yl-pyrido[3,4-d]pyrimidin-2-yl)-pyridin-2-yl]-[4-(2,2,2-trifluoro-ethoxy)-phenyl]-amine] here?
**A.** < 100 nM

**Q.** With Cc1ccnc(Nc2cc(-c3nc(N4CCNCC4)c4c(C5CC5)cncc4n3)ccn2)c1 [Example 267, [4-(5-Cyclopropyl-4-piperazin-1-yl-pyrido[3,4-d]pyrimidin-2-yl)-pyridin-2-yl]-(4-methyl-pyridin-2-yl)-amine] as the compound, how does the IC50 read?
**A.** < 100 nM

**Q.** CCNC(=O)C1CCN(c2nc(-c3ccnc(Nc4c(F)cccc4F)c3)nc3cncc(C4CC4)c23)CC1 [Example 723, 1-{5-Cyclopropyl-2-[2-(2,6-difluoro-phenylamino)-pyridin-4-yl]-pyrido[3,4-d]pyrimidin-4-yl}-piperidine-4-carboxylic acid ethylamide] was tested. Which IC50 did it give?
**A.** 1000 to 10000 nM

**Q.** Which IC50 does the source give for CC(C)n1ccc(Nc2cc(-c3nc(N4CCNC(C)(C)C4)c4c(C5CC5)cncc4n3)ccn2)n1 [Example 2018, {4-[5-Cyclopropyl-4-(3,3-dimethyl-piperazin-1-yl)-pyrido[3,4-d]pyrimidin-2-yl]-pyridin-2-yl}-(1-isopropyl-1H-pyrazol-3-yl)-amine] here?
**A.** < 100 nM

**Q.** How did the IC50 turn out when N#Cc1ccnc(Nc2cc(-c3nc(N4CC[C@@H](O)[C@@H](O)C4)c4c(C5CC5)cncc4n3)ccn2)c1 (stereo in doubt) [Example 488, 2-{4-[5-Cyclopropyl-4-((3S,4R)-3,4-dihydroxy-piperidin-1-yl)-pyrido[3,4-d]pyrimidin-2-yl]-pyridin-2-ylamino}-isonicotinonitrile] was run?
**A.** 100 to 1000 nM

**Q.** Which IC50 does the source give for c1cc(-c2nc(N3CCNCC3)c3c(C4CC4)cncc3n2)cc(N[C@@H]2C[C@H]3CC[C@@H]2O3)n1 (racemic) [Example 2093, (±)-exo-[4-(5-Cyclopropyl-4-piperazin-1-yl-pyrido[3,4-d]pyrimidin-2-yl)-pyridin-2-yl]--7-oxa-bicyclo[2.2.1]hept-2-yl-amine] here?
**A.** < 100 nM

**Q.** How did the IC50 turn out when COc1cncc2nc(-c3ccncc3)nc(N3CCN[C@H](Cc4ccccc4)C3)c12 [Example 37, (3R)-3-benzyl-1-[5-methoxy-2-(pyridin-4-yl)pyrido[3,4-d]pyrimidin-4-yl]piperazine] was run?
**A.** < 100 nM

**Q.** With COc1cncc2nc(-c3ccnc4[nH]c(Cc5ccccc5)cc34)nc(N3CCNCC3)c12 [Example 1202, 2-(2-Benzyl-1H-pyrrolo[2,3-b]pyridin-4-yl)-5-methoxy-4-piperazin-1-yl-pyrido[3,4-d]pyrimidine] as the compound, how does the IC50 read?
**A.** < 100 nM

**Q.** COc1ccc(C)c(Nc2cc(-c3nc(N4CCNCC4)c4c(C5CC5)cncc4n3)ccn2)c1 [Example 553, [4-(5-Cyclopropyl-4-piperazin-1-yl-pyrido[3,4-d]pyrimidin-2-yl)-pyridin-2-yl]-{5-methoxy-2-methyl-phenyl)-amine] was tested. Which IC50 did it give?
**A.** < 100 nM

**Q.** For C[C@@H](Nc1cc(-c2nc(N3CCNC(C)(C)C3)c3c(C4CC4)cncc3n2)ccn1)C1CCCCC1 [Example 835, ((R)-1-Cyclohexyl-ethyl)-{4-[5-cyclopropyl-4-(3,3-dimethyl-piperazin-1-yl)-pyrido[3,4-d]pyrimidin-2-yl]-pyridin-2-yl}-amine], which IC50 is on record?
**A.** < 100 nM

**Q.** With COc1cncc2nc(-c3ccncc3)nc(N3CCNC(C(=O)NCc4ccccc4)C3)c12 (stereo not shown) [Example 157, 4-(5-Methoxy-2-pyridin-4-yl-pyrido[3,4-d]pyrimidin-4-yl)-piperazine-2-carboxylic acid benzylamide] as the compound, how does the IC50 read?
**A.** 1000 to 10000 nM

**Q.** How did the IC50 turn out when COc1ccccc1-c1nccc2c(NC[C@@H](N)Cc3ccccc3)nc(-c3ccncc3)nc12 [Example 93, N-[(2S)-2-amino-3-phenylpropyl]-8-(2-methoxy-phenyl)-2-(pyridin-4-yl)-pyrido[3,4-d]-pyrimidin-4-amine] was run?
**A.** 100 to 1000 nM

**Q.** For FC(F)(F)CC1CN(c2nc(-c3ccnc(Cl)c3)nc3cncc(C4CC4)c23)CCN1 (stereo not shown) [Example 615, 2-(2-Chloro-pyridin-4-yl)-5-cyclopropyl-4-[3-(2,2,2-trifluoro-ethyl)-piperazin-1-yl]-pyrido[3,4-d]pyrimidine], which IC50 is on record?
**A.** 100 to 1000 nM

**Q.** For COc1cncc2nc(-c3ccnc(Nc4cc(C)on4)c3)nc(N3CCNCC3)c12 [Example 496, [4-(5-Methoxy-4-piperazin-1-yl-pyrido[3,4-d]pyrimidin-2-yl)-pyridin-2-yl]-(5-methyl-isoxazol-3-yl)-amine], which IC50 is on record?
**A.** 10000 to 40000 nM

**Q.** For c1cc(-c2nc(N3CCNCC3)c3c(C4CCC4)cncc3n2)c2cc([C@H]3C[C@H]4CC[C@@H]3C4)[nH]c2n1 (racemic) [Example 2135, (±)-endo-2-(2-Bicyclo[2.2.1]hept-2-yl-1H-pyrroIo[2,3-b]pyridin-4-yl)-5-cyclobutyl-4-piperazin-1-yl-pyridor3,4-d]pyrimidine], which IC50 is on record?
**A.** < 100 nM

**Q.** Which IC50 does the source give for Fc1cc(F)c(Nc2cc(-c3nc(NC4CCNC4)c4c(C5CC5)cncc4n3)ccn2)nc1F (stereo not shown) [Example 2020, {5-Cyclopropyl-2-[2-(3,5,6-trifluoro-pyridin-2-ylamino)-pyridin-4-yl]-pyrido[3,4-d]pyrimidin-4-yl}-pyrrolidin-3-yl-amine] here?
**A.** < 100 nM

**Q.** How did the IC50 turn out when COc1cncc2nc(-c3ccnc(Nc4ccccc4)c3)nc(N3CCNC(C(F)(F)F)C3)c12 (stereo not shown) [Example 231, {4-[5-Methoxy-4-(3-trifluoromethyl-piperazin-1-yl)-pyrido[3,4-d]pyrimidin-2-yl]-pyridin-2-yl}-phenyl-amine] was run?
**A.** 10000 to 40000 nM

**Q.** How did the IC50 turn out when CN1CCN(c2cccc(Nc3cc(-c4nc(N5CCC(O)C(O)C5)c5c(C6CC6)cncc5n4)ccn3)c2)CC1 (single isomer, unassigned) [Example 753, (3S,4S or 3R,4R)-1-(5-Cyclopropyl-2-{2-[3-(4-methyl-piperazin-1-yl)-phenylamino]-pyridin-4-yl}-pyrido[3,4-d]pyrimidin-4-yl)-piperidine-3,4-diol] was run?
**A.** < 100 nM

**Q.** Which IC50 does the source give for C[C@@H](Nc1cc(-c2nc(N3CCNCC3)c3c(C4CC4)cncc3n2)ccn1)c1c(F)cccc1F [Example 653, [4-(5-Cyclopropyl-4-piperazin-1-yl-pyrido[3,4-d]pyrimidin-2-yl)-pyridin-2-yl]-[(R)-1-(2,6-difluoro-phenyl)-ethyl]-amine] here?
**A.** < 100 nM

**Q.** For COc1cncc2nc(-c3ccnc(Nc4cc(C#N)ccn4)c3)nc(N3CCC(O)CC3)c12 [Example 402, 2-{4-[4-(4-Hydroxy-piperidin-1-yl)-5-methoxy-pyrido[3,4-d]pyrimidin-2-yl]-pyridin-2-ylamino}-isonicotinonitrile], which IC50 is on record?
**A.** 100 to 1000 nM

**Q.** For COCCN1CCN(c2nc(-c3ccnc(Nc4ccccc4)c3)nc3cncc(C4CC4)c23)CC1 [Example 661, (4-{5-Cyclopropyl-4-[4-(2-methoxy-ethyl)-piperazin-1-yl]-pyrido[3,4-d]pyrimidin-2-yl}-pyridin-2-yl)-phenyl-amine], which IC50 is on record?
**A.** 1000 to 10000 nM

**Q.** With O[C@@H]1CCCN(c2nc(-c3ccnc(Nc4cccc(F)n4)c3)nc3cncc(C4CC4)c23)C1 [Example 806, (R)-1-{5-Cyclopropyl-2-[2-(6-fluoro-pyridin-2-ylamino)-pyridin-4-yl]-pyrido[3,4-d]pyrimidin-4-yl}-piperidin-3-ol] as the compound, how does the IC50 read?
**A.** 1000 to 10000 nM

**Q.** For Cc1ccc(Cl)c(Nc2cc(-c3nc(N4CCNCC4)c4c(C5CC5)cncc4n3)ccn2)c1F [Example 617, (6-Chloro-2-fluoro-3-methyl-phenyl)-[4-(5-cyclopropyl-4-piperazin-1-yl-pyrido[3,4-d]pyrimidin-2-yl)-pyridin-2-yl]-amine], which IC50 is on record?
**A.** < 100 nM
